Experimental data taken from patent publication US7919508B2, “3-piperidinylisochroman-5-ols as dopamine agonists” (Aventis Pharmaceuticals Inc., priority 2004, dated 2011).
Where a name gives a salt, the structure may show the parent alone.

Experiments:
[1] = target: human dopamine D2Long (D2L) receptors (Homo sapiens, UniProt P14416)
Experimental: [N-Methyl-^3H]Spiroperidol Binding to Cloned Human Dopamine D2Long Receptors
This assay measures the in vitro activity of drugs on cloned human dopamine D2Long (D2L) receptors and predicts the direct dopamine-displacing properties of neuropsychiatric, cardiovascular and renal agents at human dopamine D2 receptors.
Cells were maintained in Ham's F12+10% Fetal Bovine Serum+Penicillin/Streptomycin (100 U/ml/100 μg/ml)+G418 (400 μg/ml) medium and were split using Trypsin-EDTA (1 ml/plate, room temperature for ˜2 min. or until cells have lifted off plates). • 2. […] Plates are incubated at 37° C.+5% CO2 for ˜3 days or until cells were confluent.
Cells are harvested by mechanical scraping, washed using PBS collected in 250 ml Corning polypropylene centrifuge tubes, spun down and resuspended in dH2O (final volume per harvest approximately 60 ml). Protein determination is made according to the method of Lowry (Biorad DC Assay Kit). Following the determination of the protein concentration, the protein is diluted into distilled water with 10% DMSO to the appropriate volume based on expression levels (Bmax). The concentrated protein is aliquoted into 1.5 ml screw top eppendorf tubes and placed into a −80° C. freezer.
Assay Requirement: 1 cryovial per two 96 well plates
0.5M Tris Wash Buffer, pH 7.7 • a) 44.4 g Tris HCl • 26.5 g Tris Base • q.s. to 1 Liter (0.5 M Tris buffer, pH 7.7 at 37° C.) • b) make a 1:10 dilution in distilled H2O (0.05 M. Tris buffer, pH 7.7) • 2. Tris Buffer containing physiological salts • a) Stock buffer • NaCl 7.014 g • KCl 0.372 g • CaCl2 0.222 g • MgCl2 0.204 g • q.s. To 100 ml with 0.5 M. Tris Buffer • b) Dilute 1:10 in distilled H2O • This yields 0.05 M. Tris HCl, pH 7.7, containing NaCl (120 mM), KCl (5 mM), CaCl2 (2 mM) and MgCl2 (1 mM) • Optional: add 0.1% ascorbic acid and check pH (in assays with compounds that may oxidize. • c) 1.0% polyethyleneimine stock in 0.5M Tris (reagent 1.a) • Dilute 1:10 in distilled H2O Binding Assay • 750 μl Tissue • 150 μl [^3H]NMSP • 100 μl vehicle (for total binding) or 30 μM (−)
eticlopride (for nonspecific binding) or appropriate drug concentration.
The 96-Well Packard Unifilters GF/B are incubated for >1 h at 25° C. in 0.1% polyethylenimine. The cold tissue is added last and mixed on a orbital shaker for a few seconds and is then incubated at 37° C. for 30 min in a shaking water bath. The assay is stopped by rapid filtration through Packard Unifilter plates. The filter membranes are then washed with 15 ml of ice-cold 0.05 M Tris buffer. The filters are then dried (˜15 min. under a heat lamp or incubated for 15 min. in a 60° C. oven) and a bottom seal is applied. Then 40 μl of Packard Microscint 20 scintillation cocktail are added and a permanent topseal (Type P) is applied and heat sealed. The plates are placed in a Packard Topcount.
Specific binding is defined as the difference between total binding and the binding in the presence of 3 μM S-(−)-eticlopride. Total binding is approximately 10% of the total added ligand. […] The percent inhibition at each drug concentration is the mean of duplicate determinations.

[2] = target: T1, human dopamine D1 receptor (Homo sapiens, UniProt P21728); test: [3H]-SCH-23390 binding to cloned human dopamine D1 receptors (CHO cell membranes); settings: competitive binding, [3H]-SCH-23390, cloned human D1 in CHO membranes; read-out: D1 affinity Ki
T1 construct: A 1.4 Kb Hind III to Xho I fragment was subcloned into the vector pMMLV; expressed in transfected cells; host or cells: CHO cells, clone CHO-D1M#9 (plasmid pHD1MMLV), membranes
T1 sequence (P21728 whole entry, the tested form may be a part): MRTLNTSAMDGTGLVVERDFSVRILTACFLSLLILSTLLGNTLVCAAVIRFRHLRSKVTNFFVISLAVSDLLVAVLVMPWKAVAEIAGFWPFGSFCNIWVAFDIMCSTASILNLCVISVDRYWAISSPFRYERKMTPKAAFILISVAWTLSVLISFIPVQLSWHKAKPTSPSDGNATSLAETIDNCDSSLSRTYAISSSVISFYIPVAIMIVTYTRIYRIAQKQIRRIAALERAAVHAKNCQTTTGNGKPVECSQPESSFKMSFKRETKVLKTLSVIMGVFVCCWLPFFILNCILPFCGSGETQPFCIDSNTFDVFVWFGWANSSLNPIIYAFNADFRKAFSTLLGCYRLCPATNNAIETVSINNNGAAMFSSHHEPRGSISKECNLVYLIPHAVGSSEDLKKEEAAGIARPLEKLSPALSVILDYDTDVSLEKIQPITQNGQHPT
Experimental: [^3H]-SCH-23390 Binding to Cloned Human Dopamine D1 Receptors
Determination of relative binding affinity of potential neuropsychiatric and other agents for the human dopamine D1 receptor.
The human D, cDNA was obtained from the laboratory of Dr. Marc Caron in the vector pCMV5. A 1.4 Kb Hind III to Xho I fragment was subcloned into the vector pMMLV. The plasmid pHD1MMLV was then sequenced completely. Transient transfections in COS-7 cells were performed and D1 specific binding was obtained. The construct pHD1MMLV was then transfected stably into CHO cells and 72 G418-resistant clones were isolated. High expressors were identified by mRNA dot blot analysis. Six high expressors were further characterized by binding and then clone CHO-D1M#9 was chosen for detailed pharmacological characterization. This clone was then grown in suspension culture for the purpose of obtaining enough protein to accommodate several months of screening.
B. Cell Culture Conditions
• 1. […] Cells are transferred to suspension culture when at least […] are available (this allows for 300,000 cells/ml in a 50 ml spinner flask; this is the ideal suspension density). Cells are removed from flasks with trypsin, spun down at 1000×G and resuspended the pellet in fresh medium: • 50% CHO-SFM-II+50% Ham's F12 w/10% FBS (final FBS conc. 5%)+400 μg/ml G418+1% P/S. • 3. After the transfer to suspension culture, growth is monitored and cell viability is assessed using trypan blue exclusion. Total and viable cell count on 5 sectors of the hemocytometer are recorded. When the viable cell density reaches 600,000 cell/ml, the volume is doubled. • 4. After 1 week of growth in the 50/50 medium, the cells are spun down and transferred to a new spinner flask and replaced with 75% CHO-SFM II/25% Ham's F12+10% FBS plus the pen-strep and G418. Thereafter every 3 days, the medium is replaced with new medium containing a decreasing amount of FBS as follows:
• 5. The final maintenance culturing medium is made up as follows: • A stock mixture of 10 ml of pen-strep, 0.5 ml of […] (active; final concentration: 200 μg/ml) G418 and 1 ml of FBS are mixed and filtered and refrigerated. A volume (11.5 ml) of this mixture is added to a freshly opened 1 L bottle of CHO-SFM II. C. Membrane Preparation
Cells are harvested into 250 ml centrifuge tubes and spun down at 1200×G. The medium is removed and 100 ml PBS (phosphate-buffered saline) is added to each centrifuge tube; cells are resuspended and spun down again. The PBS is removed and the final pellet is homogenized with a polytron on ice at a medium setting.
The membrane suspension is diluted in water and samples (10, 50 and 100 μl; q.s. to 100 μl with water) are diluted with 100 μl of 1% SDS. The sample is vortexed and allowed to stand for 5 min. Two aliquots each of the solubilized protein sample are placed in clean 13×100 test tubes for the assay. Instructions are followed as outlined in the BioRad DC protein determination kit (Catalog # 500-0112). OD readings that fall between 0.1-0.5 (mid-range of standard curve) should typically be used for calculations. Protein concentrations are calculated from a standard curve using bovine serum albumin as standard by linear regression and interpolation.
Following cell harvesting and protein determination, the homogenate is diluted with 10% DMSO to the correct volume based on Bmax and relative size of individual experiments to be conducted. The concentrated protein is stored in cryogenic vials in aliquots of 1-1.5 ml. Samples may be stored in −80° C. freezer or in liquid nitrogen.

Chain of human dopamine D2Long (D2L) receptors (P14416 whole entry): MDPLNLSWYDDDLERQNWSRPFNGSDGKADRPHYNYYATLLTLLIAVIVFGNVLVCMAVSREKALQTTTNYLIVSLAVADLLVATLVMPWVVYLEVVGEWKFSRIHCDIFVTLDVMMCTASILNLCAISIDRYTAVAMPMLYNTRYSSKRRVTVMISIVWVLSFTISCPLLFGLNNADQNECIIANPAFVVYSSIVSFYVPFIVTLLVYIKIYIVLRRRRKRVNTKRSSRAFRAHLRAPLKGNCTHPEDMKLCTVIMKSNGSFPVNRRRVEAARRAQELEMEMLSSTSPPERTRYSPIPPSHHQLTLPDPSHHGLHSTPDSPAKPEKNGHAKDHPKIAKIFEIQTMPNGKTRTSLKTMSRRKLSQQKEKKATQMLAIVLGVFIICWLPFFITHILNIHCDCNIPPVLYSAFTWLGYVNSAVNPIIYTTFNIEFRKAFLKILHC

Structure (SMILES) | Ki [1] [nM] | Ki [2] [nM]
CCC(NC(=O)c1ccc(C)cc1)C(C)CN1CCC([C@@H]2Cc3c(ccc(C)c3O)[C@H](CN)O2)CC1 (stereo partly drawn) [Example 14, N-{3-[4-((1R,3S)-1-Aminomethyl-5-hydroxy-6-methyl-isochroman-3-yl)-piperidin-1-yl]-1-ethyl-2-methyl-propyl}-4-methyl-benzamide dihydrochloride] | ≥ 100000 | 274
Cc1ccc2c(c1O)C[C@@H](C1CCN(CCC(C)NC(=O)c3ccc(-c4ccccc4)cc3)CC1)O[C@H]2CN (stereo partly drawn) [Example 18, Biphenyl-4-carboxylic acid {3-[4-((1R,3S)-1-aminomethyl-5-hydroxy-6-methyl-isochroman-3-yl)-piperidin-1-yl]-1-methyl-propyl}-amide dihydrochloride] | 389 | 244
Cc1ccc2c(c1O)C[C@@H](C1CCN(CCC(C)NC(=O)c3ccc([N+](=O)[O-])cc3)CC1)O[C@H]2CN (stereo partly drawn) [Example 24, N-{3-[4-((1R,3S)-1-Aminomethyl-5-hydroxy-6-methyl-isochroman-3-yl)-piperidin-1-yl]-1-methyl-propyl}-4-nitro-benzamide dihydrochloride] | 638 | 240
Cc1ccc2c(c1O)C[C@@H](C1CCN(CC(C)C)CC1)O[C@H]2CN [Example 40, (1R,3S)-1-Aminomethyl-3-(1-isobutyl-piperidin-4-yl)-6-methyl-isochroman-5-ol dihydrochloride] | ≥ 10000 | 361
Cc1ccc2c(c1O)C[C@@H](C1CCN(CC(C)(C)C)CC1)O[C@H]2CN [Example 42, (1R,3S)-1-Aminomethyl-3-[1-(2,2-dimethyl-propyl)-piperidin-4-yl]-6-methyl-isochroman-5-ol dihydrochloride] | ≥ 10000 | 398
Cc1ccc2c(c1O)C[C@@H](C1CCN(Cc3ccc(F)cc3F)CC1)O[C@H]2CN [Example 50, (1R,3S)-1-Aminomethyl-3-[1-(2,4-difluoro-benzyl)-piperidin-4-yl]-6-methyl-isochroman-5-ol dihydrochloride] | 367 | 47.3
Cc1ccc2c(c1O)C[C@@H](C1CCN(C(C)c3ccccc3)CC1)O[C@H]2CN (stereo partly drawn) [Example 51, (1R,3S)-1-Aminomethyl-6-methyl-3-[1-(1-phenyl-ethyl)-piperidin-4-yl]-isochroman-5-ol dihydrochloride] | – | 156
Cc1ccc2c(c1O)C[C@@H](C1CCN(Cc3ccccn3)CC1)O[C@H]2CN [Example 52, (1R,3S)-1-Aminomethyl-6-methyl-3-(1-pyridin-2-ylmethyl-piperidin-4-yl)-isochroman-5-ol dihydrochloride] | ≥ 10000 | 113
Cc1ccccc1CN1CCC([C@@H]2Cc3c(ccc(C)c3O)[C@H](CN)O2)CC1 [Example 64, (1R,3S)-1-Aminomethyl-6-methyl-3-[1-(2-methyl-benzyl)-piperidin-4-yl]-isochroman-5-ol dihydrochloride] | 576 | 198
COc1ccccc1CN1CCC([C@@H]2Cc3c(ccc(C)c3O)[C@H](CN)O2)CC1 [Example 68, (1R,3S)-1-Aminomethyl-3-[1-(2-methoxy-benzyl)-piperidin-4-yl]-6-methyl-isochroman-5-ol dihydrochloride] | 232 | 96.7
Cc1ccc2c(c1O)C[C@@H](C1CCN(Cc3ccccc3C(F)(F)F)CC1)O[C@H]2CN [Example 72, (1R,3S)-1-Aminomethyl-6-methyl-3-[1-(2-trifluoromethyl-benzyl)-piperidin-4-yl]-isochroman-5-ol dihydrochloride] | 266 | 159
Cc1ccc2c(c1O)C[C@@H](C1CCN(Cc3cccc(C(F)(F)F)c3Cl)CC1)O[C@H]2CN [Example 79, (1R,3S)-1-Aminomethyl-3-[1-(2-chloro-3-trifluoromethyl-benzyl)-piperidin-4-yl]-6-methyl-isochroman-5-ol dihydrochloride] | 310 | 81
Cc1ccc2c(c1O)C[C@@H](C1CCN(Cc3cccc(C(F)(F)F)c3F)CC1)O[C@H]2CN [Example 80, (1R,3S)-1-Aminomethyl-3-[1-(2-fluoro-3-trifluoromethyl-benzyl)-piperidin-4-yl]-6-methyl-isochroman-5-ol dihydrochloride] | 565 | 48.7
Cc1ccc2c(c1O)C[C@@H](C1CCN(Cc3cc(C(F)(F)F)ccc3F)CC1)O[C@H]2CN [Example 81, (1R,3S)-1-Aminomethyl-3-[1-(2-fluoro-5-trifluoromethyl-benzyl)-piperidin-4-yl]-6-methyl-isochroman-5-ol dihydrochloride] | 343 | 28.7
Cc1ccc2c(c1O)C[C@@H](C1CCN(Cc3ccc(C(F)(F)F)c(F)c3)CC1)O[C@H]2CN [Example 82, (1R,3S)-1-Aminomethyl-3-[1-(3-fluoro-4-trifluoromethyl-benzyl)-piperidin-4-yl]-6-methyl-isochroman-5-ol dihydrochloride] | ≥ 10000 | 15.6
Cc1ccc2c(c1O)C[C@@H](C1CCN(Cc3ccc(F)c(C(F)(F)F)c3)CC1)O[C@H]2CN [Example 83, (1R,3S)-1-Aminomethyl-3-[1-(4-fluoro-3-trifluoromethyl-benzyl)-piperidin-4-yl]-6-methyl-isochroman-5-ol dihydrochloride] | 611 | 15.9
Cc1ccc2c(c1O)C[C@@H](C1CCN(Cc3cc(F)cc(C(F)(F)F)c3)CC1)O[C@H]2CN [Example 84, (1R,3S)-1-Aminomethyl-3-[1-(3-fluoro-5-trifluoromethyl-benzyl)-piperidin-4-yl]-6-methyl-isochroman-5-ol dihydrochloride] | 450 | 33
Cc1ccc2c(c1O)C[C@@H](C1CCN(C(=O)N(c3ccccc3)c3ccccc3)CC1)O[C@H]2CN [Example 130, 4-((1R,3S)-1-Aminomethyl-5-hydroxy-6-methyl-isochroman-3-yl)-piperidine-1-carboxylic acid diphenylamide hydrochloride] | – | 156
CCCN(C)C[C@@H]1O[C@H](C2CCN(Cc3ccc(C(F)(F)F)cc3)CC2)Cc2c1ccc(C)c2O [Example 184, (1R,3S)-6-Methyl-1-[(methyl-propyl-amino)-methyl]-3-[1-(4-trifluoromethyl-benzyl)-piperidin-4-yl]-isochroman-5-ol] | – | 110
C=CCN(CC=C)C[C@@H]1O[C@H](C2CCN(Cc3ccc(C(F)(F)F)cc3)CC2)Cc2c1ccc(C)c2O [Example 185, (1R,3S)-1-Diallylaminomethyl-6-methyl-3-[1-(4-trifluoromethyl-benzyl)-piperidin-4-yl]-isochroman-5-ol] | – | 3100
C=CCNC[C@@H]1O[C@H](C2CCN(Cc3ccccc3)CC2)Cc2c1ccc(C)c2O [Example 186, (1R,3S)-1-Allylaminomethyl-3-(1-benzyl-piperidin-4-yl)-6-methyl-isochroman-5-ol] | – | 1910
C=CCN(CC=C)C[C@@H]1O[C@H](C2CCN(Cc3ccccc3)CC2)Cc2c1ccc(C)c2O [Example 187, (1R,3S)-3-(1-Benzyl-piperidin-4-yl)-1-diallylaminomethyl-6-methyl-isochroman-5-ol] | – | 2640
Cc1ccc2c(c1O)C[C@@H](C1CCN(C(C(=O)O)c3ccccc3)CC1)O[C@H]2CN (stereo partly drawn) [Example 195, [4-((1R,3S)-1-Aminomethyl-5-hydroxy-6-methyl-isochroman-3-yl)-piperidin-1-yl]-phenylacetic acid dihydrobromide] | – | 1700
